Target: T1, angiotensin I converting enzyme (ACE) (Oryctolagus cuniculus, UniProt P12822)
T1 construct: prepared from the lungs of albino rabbit according to the method described by Wallace et al; from tissue; host or cells: lungs of albino rabbit
T1 sequence (P12822 34-1310): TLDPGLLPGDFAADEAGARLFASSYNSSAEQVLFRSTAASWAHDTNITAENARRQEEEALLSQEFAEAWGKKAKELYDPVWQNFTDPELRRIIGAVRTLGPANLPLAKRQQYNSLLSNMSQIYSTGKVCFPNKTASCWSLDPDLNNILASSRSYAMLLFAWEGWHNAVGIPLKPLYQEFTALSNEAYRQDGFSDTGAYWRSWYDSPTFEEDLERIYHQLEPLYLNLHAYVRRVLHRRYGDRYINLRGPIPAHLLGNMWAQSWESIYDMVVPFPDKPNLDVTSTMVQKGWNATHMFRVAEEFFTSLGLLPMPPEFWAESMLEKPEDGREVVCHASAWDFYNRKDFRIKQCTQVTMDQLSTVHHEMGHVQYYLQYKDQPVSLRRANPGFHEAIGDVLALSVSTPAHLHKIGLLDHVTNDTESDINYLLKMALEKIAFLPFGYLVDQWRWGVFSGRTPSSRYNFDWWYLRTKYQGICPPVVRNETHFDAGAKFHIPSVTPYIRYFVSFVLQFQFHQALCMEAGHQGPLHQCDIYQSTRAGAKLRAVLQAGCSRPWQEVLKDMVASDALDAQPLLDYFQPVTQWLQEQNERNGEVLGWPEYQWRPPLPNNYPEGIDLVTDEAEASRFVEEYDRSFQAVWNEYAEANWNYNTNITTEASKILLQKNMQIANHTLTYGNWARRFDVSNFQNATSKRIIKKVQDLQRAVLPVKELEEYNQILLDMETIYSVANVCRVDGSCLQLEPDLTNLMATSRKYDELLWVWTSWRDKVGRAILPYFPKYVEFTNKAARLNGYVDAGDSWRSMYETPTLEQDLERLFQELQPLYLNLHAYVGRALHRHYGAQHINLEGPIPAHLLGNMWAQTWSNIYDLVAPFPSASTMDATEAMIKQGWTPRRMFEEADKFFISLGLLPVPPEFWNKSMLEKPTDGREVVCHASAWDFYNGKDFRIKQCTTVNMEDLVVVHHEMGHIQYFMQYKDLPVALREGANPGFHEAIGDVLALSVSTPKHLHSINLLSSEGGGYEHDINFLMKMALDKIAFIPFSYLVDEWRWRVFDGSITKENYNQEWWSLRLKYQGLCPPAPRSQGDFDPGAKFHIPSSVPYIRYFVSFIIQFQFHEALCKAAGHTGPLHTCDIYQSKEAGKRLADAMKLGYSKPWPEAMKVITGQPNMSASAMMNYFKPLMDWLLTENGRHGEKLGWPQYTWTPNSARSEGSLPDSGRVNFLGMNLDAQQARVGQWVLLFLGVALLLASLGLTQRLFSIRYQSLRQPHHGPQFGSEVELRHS
Experiment: Inhibition of angiotensin I converting enzyme (HHL substrate, hippuric acid colorimetry, modified Cushman method)
Assay type: biochemical, albino rabbit
Details: ACE from rabbit lung, 37°C, one hour, read-out: Inhibitory Activity on ACE (%); for inhibition at 1 µM: Concentration 1 µM; for inhibition at 10 µM: Concentration 10 µM
Description: Inhibitions of Angiotensin I Converting Enzyme by the Compounds of this Invention.
The experiment was conducted in accordance with a modification of the method described by Cushman et al. [Biochemical Pharmacology, Vol. 20, p1637(1971)] using an angiotensin I converting enzyme (ACE) prepared from the lungs of albino rabbit according to the method described by Wallace et al. [American Journal of Physiology, Vol 234, page R141(1978)]. That is, using hippuryl-L-histidyl-L-leucin (HHL) as the substrate, the ACE inhibitory activity was determined in terms of percentage inhibitation on the amount of hippurie acid produced by ACE when the present compound was added. A solution of the compound of the present invention dissolved in an 0.02 to 2% dimethyl sulfoxide-500 mMpotassium phosphate buffer solution (pH 8.3, containing 300 mM sodium chloride) was added to 100 µℓ of ACE (protein concentration, 20 mg/mℓ) and 100 µℓ of 1.25 mM HHL. In this experiment a potassium phosphate buffer solution containing dimethyl sulfoxide at a concentration equal to that of the test solution was used as a control. After incubating the solution at 37°C for one hour, 150 µℓ of 1N hydrochloric acid were added to the solution to terminate the reaction. After 1 mℓ of ethyl acetate was added, the solution was centrifuged at 3000 r.p.m. for 10 minutes. An 0.5 mℓ aliquot was separated from the ethyl acetate layer and dried at a temperature below 50°C under a nitrogen. gas stream. The residue was mixed with mℓ of 1M aqueous sodium chloride and the mixture was subjected to colorimetry at a wavelength of 228 nm.

| Compound | inhibition at 1 µM [%] | inhibition at 10 µM [%] |
| --- | --- | --- |
| CC(=O)SCC(C)C(=O)N1Cc2cc(Br)ccc2CC1C(=O)O (stereo not shown) [Example 42, 2-(3-acetylthio-2-methylpropiony)-7-tromo-1,2,3,4-tetrahydroisoquinoline-3-carboxylic acid] | 69 | 93 |
| CC(=O)SCC(C)C(=O)N1Cc2cc(CC(C)C)ccc2CC1C(=O)O (stereo not shown) [Example 34, 2-(3-acetylthio-2-methylpropionyl)-7-isobutyl-1,2,3,4-tetrahydroisoquinoline-3-carboxylic acid] | 63 | 94 |
| CC(=O)SCC(C)C(=O)N1Cc2cc(N3CCCCC3)ccc2CC1C(=O)O (stereo not shown) [Example 44, 2-(3-acetylthio-2-methylpropionyl)-7-piperidino-1,2,3,4-tetrahydroisoquinoline-3-carbozylic acid] | 66 | 97 |
| CC(=O)SCC(C)C(=O)N1Cc2ccc(O)cc2CC1C(=O)O (stereo not shown) [Example 19, 2-(3-acetylthio-2-methylpropionyl)-6-hydroxy-1,2,3,4-tetrahydroisoquinoline-3-carboxylic acid] | 61 | 98 |
| CC(=O)SCC(C)C(=O)N1Cc2cc(O)c(O)cc2C[C@H]1C(=O)O (stereo partly drawn) [Example 1, (3S)-2-(3-acetylthio-2-methylpropionyl)-6,7-dihydroxy-1,2,3,4-tetrahydroisoquinoline-5-carboxylie aeid] | 23 | 87 |
| COc1cc2c(cc1OC)CN(C(=O)C(C)CSC(C)=O)C(C(=O)O)C2 (stereo not shown) [Example 6, 2-(3-acetylthio-2-methylpropionyl)-6,7-dimethoxy-1,2,3,4-tetrahydroisoquinoline-3-carboxylic aeid] | 62 | 99 |
| CC(CS)C(=O)N1Cc2cc3c(cc2C[C@H]1C(=O)O)OCO3 (stereo partly drawn) [Example 52, (3S)-2-(3-mercapto-2-methylpropionul)-1,7-mezhylene-dioxy-1,2,3,4-tetrahydroisoquinoline-3-earboxylie acid] | 60 | 82 |
| CC(=O)SCC(C)C(=O)N1Cc2cc3c(cc2C[C@H]1C(=O)O)OCO3 (stereo partly drawn) [Example 38, (3S)-2-(3-acetylthio-2-methylpropionyl)-6,7-methylenedioxy-1,2,3,4-tetrahydroisoquinoline-3-carboxylic acid] | 83 | 100 |
| COc1cc2c(cc1O)CN(C(=O)C(C)CSC(C)=O)C(C(=O)O)C2 (stereo not shown) [Example 14, 2-(3-acetylthio-2-methylpropionyl)-7-hydroxy-6-methoxy-1,2,3,4-tetrahydroisoquinoline-3-carbxylic acid] | 33 | 90 |
| CC(=O)SCC(C)C(=O)N1Cc2cc(C)ccc2CC1C(=O)O (stereo not shown) [Example 7] | 63 | 88 |
| CC(C)(C)c1ccc2c(c1)CN(C(=O)C(CS)CS)C(C(=O)O)C2 (stereo not shown) [Example 71, 7-tert-butyl-2-(3-mercapto-2-mereaptomethylprionyl)-1,2,3,4-tetrahydroisoquinoline-3-carboxylic acid] | 71 | 77 |
